The results in this text go back to patent publication US12459938B2, “ORAI channel inhibitors” (Beth Israel Deaconess Medical Center, Inc., priority 2019, dated 2025).

Holding throughout (assay type): cell-based
For assay [1], the system named is Rat mast cells (RBL-2H3 cells). Briefly: Calcium influx assay (Fluo-4NW, thapsigargin store depletion, Ca2+ re-addition). The following applies: control = DMSO, read-out: Fluo-4NW fluorescence (Ca2+ influx), % of control; for activity at 1 µM: 1 μM compound; for activity at 10 µM: 10 μM compound. Here is the method:
Rat mast cells (RBL-2H3 cells) (ATCC) were seeded in 96-well plate at 4×10^4 cells per well in DMEM-supplemented with 2% FBS and allowed to adhere overnight. Culture medium was then replaced with 50 μl of Ca^2+-free Tyrode buffer to load Ca^2+-probe Fluo-4NW (Molecular Probe, Thermo Fisher, MA, USA) per manufacturer instruction. A testing compound at indicated concentrations was supplied during the probe loading from the beginning. Cells were incubated in the presence or absence of a testing compound for 60 minutes in the Ca^2+-free medium at 37° C. During the last 5 minutes of incubation, cells were treated with 1 μM thapsigargin (Tg, Sigma Aldrich) to deplete [Ca^2+]ER, 20 mM CaCl2 in normal saline solution was supplemented back to the [Ca^2+]ER-depleted cells to have 2 mM as final concentration. Culture medium was removed 1 minute after Ca^2+ reloading, and changes in Fluo-4NW fluorescence (RFU) were recorded with the multi-mode plate reader (FilterMax F5, Molecular Devices/Thermo Fisher Scientific, MA, USA) at an excitation wavelength of 485 nm and an emission wavelength of 535 nm. The inhibitory activity of the tested compound was presented as % of control (DMSO).

The test system of the next assay is IL-2. Briefly: Interleukine-2 (IL-2) assay (ELISA, PMA and TG stimulated). The following applies: Human Jurkat T cells; PMA (10 nM) and TG (100 nM); 8 hours; read-out: IC50 (IL-2 levels). Here is the method:
Human Jurkat T cells (ATCC) were plated in Dubelcco's Modified Eagle Medium (DMEM) with 1% FBS in a 96 well plate at a density of 1×10^6 cells/well. Cells were treated with a testing compound at different concentrations and stimulated by PMA (10 nM) and TG (100 nM). The treated cells were incubated at 8 hours. The supernatants were collected and assayed for IL-2 levels by ELISA according to the manufacturer's protocols. The IC50 of Example 2 was determined to be 3 μM.
Background: An ELISA detects its analyte on a solid surface through an enzyme-linked reagent.

In another assay the test system is RBL rat mast cells. Briefly: Degranulation of rat mast cells (secreted β-hexosaminidase). Conditions: Mast cell, 0.5 h, Tg depletion, 30 minutes after replenishing Ca2+. Here is the method: (§1) [Ca^2+]ER in RBL (ATCC) rat mast cells were depleted by Tg in the presence of a test compound. Then […] DMEM-2% FBS (containing 5 mM Ca^2+) was supplemented back in the presence of the corresponding concentration of MCS-01.
(§2) Thirty minutes after replenishing Ca^2+ the culture supernatant was collected for MC degranulation and cytokine release. Degranulation was measured as percent secreted β-hexosaminidase (β-Hex) according to the protocol of the assay kit (Sigma-Aldrich, MO, USA). At this time point TNF-α was also measured using ELISA kit (R&D Systems, MN, USA).

The next assay has as its system TNF-α. Briefly: TNF-α release from rat mast cells (ELISA). Conditions: Mast cell, RBL rat mast cells, control = DMSO; for activity at 1 µM: 1 μM compound; for activity at 10 µM: 10 μM compound. As for the experimental part:
as §1, §2
The inhibitory activity of the tested compound in the TNF-α assay was presented as % of control (DMSO).

The test system of a further assay is NFAT. Briefly: NFAT activation assay (luciferase reporter, PMA and ionomycin). Conditions: Homo sapiens; 10 μM compound; Jurkat cells; 15 nM PMA and 0.5 μM ionomycin; 18 hours; read-out: Activity 10 μM (% inhibition of NFAT luciferase luminescence). Here is the method:
Jurkat cells (BPS Bioscience catalog No. 60621) were seeded at 40,000 cells per well into white clear-bottom 96-well microplate in 80 μl of growth medium without Geneticin. 10 μl of testing compounds (final 10 μM) were added to each well and preincubated with cells for half an hour. Then 10 μl of PMA and ionomycin mixture were added to each well to make the final concentration of 15 nM PMA and 0.5 μM ionomycin. Cells were incubated at 37° C. and 5% CO2 incubator for 18 hours. After treatment, cells were lysed and the luciferase assay was performed using ONE-Step luciferase assay system by adding 100 μl of One-Step Luciferase reagent (BPS Bioscience catalog No. 60690) per well followed by rocking at room temperature for about 30 minutes. Luminescence was measured using a luminometer (BioTek Synergym™ 2 microplate reader). The percent luminescence in the presence of each compound was calculated according to the following equation: % Luminescence=(L−Lb)/(Lt−Lb), where L=the luminescence intensity in the presence of the compound, Lb=the luminescence intensity in the absence of cells, and Lt=the luminescence intensity in the absence of the compound. The percent inhibition was calculated by: % inhibition=100−(% Luminescence).
(In general: Reporter assays use an easily measured gene product as a stand-in for the process of interest.)

One may read the IC50 as the concentration needed to halve the response being measured. For `O=C(Nc1c(F)cccc1Cl)c1cn(CC2CC2)c2ccccc12` [Example 2, N-(2-chloro-6-fluorophenyl)-1-(cyclopropylmethyl)-1H-indole-3-carboxamide], the activity at 1 µM in assay [1] amounted to 46%; in the assay on TNF-α it was 57%. Also, the activity at 10 µM turned out to be 14% in assay [1] and 30% with TNF-α. Moreover, the IC50 with IL-2 was determined as 3 µM; with RBL rat mast cells, 1.2 µM.

Broadly, the inhibition is the percentage by which the read-out fell short of the control. Consider `O=C(Nc1c(F)cncc1F)c1cn(CC2CC2)c2ccccc12` [Example 3, 1-(cyclopropylmethyl)-N-(3,5-difluoropyridin-4-yl)-1H-indole-3-carboxamide], for which, in assay [1], the activity at 1 µM stood at 66% and the activity at 10 µM is 37%. Also, the inhibition at 10 µM with NFAT lay in the range of 51 to 75%.

`Cc1cnccc1NC(=O)c1cn(CC2CC2)c2ccccc12` [Example 4, 1-(cyclopropylmethyl)-N-(3-methylpyridin-4-yl)-1H-indole-3-carboxamide]: in assay [1], the activity at 1 µM came out at 61% and the activity at 10 µM is 44%. Further, the inhibition at 10 µM with NFAT lay within 51 to 75%.

Consider `O=C(Nc1c(F)cncc1F)c1cn(CC2CCC2)c2ccccc12` [Example 7, 1-(cyclobutylmethyl)-N-(3,5-difluoropyridin-4-yl)-1H-indole-3-carboxamide], for which, in assay [1], the activity at 1 µM is 85% and the activity at 10 µM stood at 80%. Also, the inhibition at 10 µM with NFAT is 51 to 75%.

In the case of `O=C(Nc1ccncc1F)c1cn(CC2CCC2)c2ccccc12` [Example 8, 1-(cyclobutylmethyl)-N-(3-fluoropyridin-4-yl)-1H-indole-3-carboxamide], in assay [1], the activity at 1 µM came to 50% and the activity at 10 µM is 25%. Further, the inhibition at 10 µM with NFAT was over 75%. In the assay on TNF-α, this molecule showed an activity at 1 µM of 79% and an activity at 10 µM of 51%.

Take `Cc1cnccc1NC(=O)c1cn(CC2CCC2)c2ccccc12` [Example 9, 1-(cyclobutylmethyl)-N-(3-methylpyridin-4-yl)-1H-indole-3-carboxamide]: in assay [1], the activity at 1 µM stood at 81% and the activity at 10 µM stood at 65%. Besides, the inhibition at 10 µM with NFAT was over 75%.

Turning to `O=C(Nc1ccncc1F)c1cn(CC2CC2)c2ccccc12` [Example 13, 1-(cyclopropylmethyl)-N-(3-fluoropyridin-4-yl)-11/-indole-3-carboxamide], the activity at 1 µM was found to be 63% in assay [1] and 67% in the assay with TNF-α. The results for the activity at 10 µM (in assay [1]; in the assay on TNF-α) were 31% and 53%, respectively. For the same molecule, the inhibition at 10 µM with NFAT is over 75%.
